{"source": "paper PMC10657444", "about": "“Design and evaluation of tadpole-like conformational antimicrobial peptides” (Communications Biology, 2023)", "key": {"E. coli ATCC 25922": {"test_system": "E. coli ATCC 25922", "assay_type": "cell-based, Escherichia coli", "excerpt": "Bacteria were cultivated in Luria-Bertani (LB) broth."}, "MTT cytotoxicity assay": {"assay": "MTT cytotoxicity assay", "assay_type": "cell-based, human", "details": "human", "method": "(§1) To determine the cytotoxicity of the peptides, we used the MTT (3-(4,5)-dimethylthiahiazo (-z-y1)-3,5-di-phenytetrazoliumromide) dye reduction assay against HEK293T cells. In brief, the 100 μL of cells in 96-well plate were incubated for 24 h at 37 °C, 5% CO2, and then peptide solutions (concentrations ranging from 100 to 0.39 μM) were added and further incubated for 72 h. MTT solution (5 mg/mL) was added and further incubated for 4 h. After incubation, the precipitated MTT formazan crystal was dissolved by addition of dimethyl sulfoxide (DMSO). […]"}, "HEK293T cells": {"test_system": "HEK293T cells", "assay": "MTT cytotoxicity assay", "assay_type": "cell-based, human", "details": "for percent cell viability: HEK293T", "method": "as §1"}, "sheep red blood cells": {"test_system": "sheep red blood cells", "assay": "Hemolysis assay", "method": "To evaluate the hemolysis effects of peptides, red blood hemolysis was performed as described with minimum modifications. Sterile defibrated sheep blood was purchased from Guangzhou Hongquan Biotechnology Co., LTD. Blood cells were adjusted to 2 × 10^9 cells/mL in phosphate-buffered saline (PBS, pH 7.4). In total, 98 μL sheep red blood cell suspension was incubated with 2 μL of peptides at different concentrations ranging from 3.13 to 100 µM. After incubation for 1 h at 37 °C, the cells were centrifuged and the absorbance of the supernatant was measured at 450 nm. The value for “zero hemolysis” was determined using sterile PBS, while 100% hemolysis was established using 1.5% (v/v) Triton X-100. Hemolysis of testing sample was calculated as the percentage of Triton X-100-induced hemolysis."}, "[1]": {"test_system": "K. pneumoniae ATCC 700603", "assay": "Time-kill assay", "assay_type": "cell-based, Klebsiella pneumoniae", "method": "Time-kill assays were done in tubes (in 1.5 mL of LB) and antibiotics at the 1 ×, 2 ×, 4 × and 8 × MIC. Tubes were inoculated (5 × 10^6 CFU/mL) with MRSA USA 300 and K. pneumoniae ATCC 700603 and incubated at 37 °C under shaking. Serial dilutions of the cultures were plated at each desired time point (0, 1, 3, 6, and 24 h), using a multichannel pipette as follows: in line 1 of a 96-well plate, 100 µL of bacterial suspension was added, while 90 µL of 0.9% sterile saline per well was added to the other lines. At selected time points, 100 µL of bacterial suspension was transferred from the time-kill assay plate to the first line. The wells were further diluted 1 in 10 (0.9% saline) for the appropriate number of dilutions and 10 μL of each dilution was spotted in duplicate onto MH agar plates, then incubated overnight at 37°C. The colonies in each spot were counted and used to calculate the number of viable CFU/mL remaining in the original culture by considering the dilution factors."}, "MRSA USA 300 [2]": {"test_system": "MRSA USA 300", "assay": "Scanning electron microscopy", "assay_type": "cell-based, Staphylococcus aureus", "details": "2 × MIC, 60 min", "method": "(§2) Mid-log phase bacteria (MRSA USA 300 and K. pneumoniae ATCC 700603) grown in LB broth were adjusted to a density of 5 × 10^6 CFU/mL. […] All samples were centrifuged at 8000 rpm for 5 min, washed and then resuspended in PBS. Bacterial cells were fixed with 2.5% glutaraldehyde, and then incubated at 37°C on a glass slide for 20 min. Samples were dehydrated by passing through gradient ethanol (10%, 30%, 50%, 70%, 90%, and 100%) for 5 min at each concentration. Slides were dried with an automatic critical point drying instrument (Leica EM CPD300), and a small amount of gold was sputtered onto the samples using a sputter coater system to avoid charging in the microscope. Finally, the bacteria were visualized under a field-emission scanning electron microscopy (FESEM) device (Sirion 200)."}, "[3]": {"test_system": "K. pneumoniae ATCC 700603", "assay": "Scanning electron microscopy", "assay_type": "cell-based, Klebsiella pneumoniae", "details": "2 × MIC, 60 min", "method": "as §2"}, "MRSA USA 300 [4]": {"test_system": "MRSA USA 300", "assay": "Transmission electron microscopy", "assay_type": "cell-based, Staphylococcus aureus", "details": "2 × MIC, 60 min", "method": "(§3) The processing method of the samples for transmission electron microscopy (TEM) was the same as the treatment for SEM. The samples were then prefixed with 2.5% glutaraldehyde at 4°C overnight, post-fixed with osmium tetroxide for 70 min, and washed twice with PBS (pH 7.4). Subsequently, the samples were dehydrated for 10 min in a graded ethanol series (30, 50, 70, 90, and 100%) followed by 10 min in a mixture of absolute ethanol and acetone (1:1, v/v) and 10 min in absolute acetone. The specimens were transferred to a mixture of absolute acetone and epoxy resin (1:1, v/v) for 30 min and then to pure epoxy resin overnight at a constant temperature. Finally, the samples were sectioned using an ultramicrotome, stained with uranyl acetate and lead citrate, and then observed by TEM (Hitachi H-7650, Japan)."}, "[5]": {"test_system": "K. pneumoniae ATCC 700603", "assay": "Transmission electron microscopy", "assay_type": "cell-based, Klebsiella pneumoniae", "details": "2 × MIC, 60 min", "method": "as §3"}, "[6]": {"details": "HEK293T cells, OD450, cytotoxicity (Fig 2a), replicates"}}, "note": "Where “and” joins values, the source holds several entries; their conditions need not be identical. Equal values may be shown once. Read-outs that look alike come from different tables or passages of the source. Residues, ends and D or L forms follow the SMILES beside them."}
{"compound": "CC[C@H](C)[C@H](NC(=O)[C@H](CCCNC(=N)N)NC(=O)[C@H](CCCNC(=N)N)NC(=O)[C@H](CC(C)C)NC(=O)[C@H](Cc1ccccc1)NC(=O)[C@@H](N)CCCNC(=N)N)C(=O)N[C@@H](Cc1ccccc1)C(=O)N[C@@H](Cc1ccccc1)C(=O)N[C@@H](Cc1ccccc1)C(=O)N[C@@H](Cc1ccccc1)C(N)=O", "note": "[HT2] (H-RFLRRIFFFF-NH2)", "values": [{"measurement": "MIC Gram- E. coli ATCC 25922", "setting": "E. coli ATCC 25922", "value": 3.13, "unit": "µM"}, {"measurement": "IC50 at 72 h", "setting": "MTT cytotoxicity assay", "value": "> 100", "unit": "µM"}, {"measurement": "viability at 72 h, 0.39 µM", "setting": "MTT cytotoxicity assay; HEK293T cells, HEK293T, 0.39 µM, read-out: OD450, cytotoxicity (Fig 2a), replicates", "value": 96.7, "unit": "%"}, {"measurement": "viability at 72 h, 6.25 µM", "setting": "MTT cytotoxicity assay; HEK293T cells, HEK293T, 6.25 µM, read-out: OD450, cytotoxicity (Fig 2a), replicates", "value": 99.2, "unit": "%"}, {"measurement": "viability at 72 h, 12.5 µM", "setting": "MTT cytotoxicity assay; HEK293T cells, HEK293T, 12.5 µM, read-out: OD450, cytotoxicity (Fig 2a), replicates", "value": 92.8, "unit": "%"}, {"measurement": "viability at 72 h, 0.39 µM", "setting": "MTT cytotoxicity assay; [6]", "value": 100, "unit": "%"}, {"measurement": "viability at 72 h, 0.78 µM", "setting": "MTT cytotoxicity assay; [6]", "value": 94.2, "unit": "%"}, {"measurement": "viability at 72 h, 1.57 µM", "setting": "MTT cytotoxicity assay; [6]", "value": 93.1, "unit": "%"}, {"measurement": "viability at 72 h, 3.13 µM", "setting": "MTT cytotoxicity assay; [6]", "value": 95.4, "unit": "%"}, {"measurement": "viability at 72 h, 25 µM", "setting": "MTT cytotoxicity assay; [6]", "value": 93.2, "unit": "%"}, {"measurement": "viability at 72 h, 50 µM", "setting": "MTT cytotoxicity assay; [6]", "value": 98.4, "unit": "%"}, {"measurement": "viability at 72 h, 100 µM", "setting": "MTT cytotoxicity assay; [6]", "value": 94.3, "unit": "%"}, {"measurement": "toxicity / cytotoxicity against HEK293T cells (in words)", "setting": "HEK293T cells", "value": "did not present"}, {"measurement": "percent cell viability", "setting": "HEK293T cells; 6.25 µM", "value": "93.7324 and 94.5028"}, {"measurement": "percent cell viability", "setting": "HEK293T cells; 12.5 µM", "value": "96.2979 and 92.259"}, {"measurement": "OD450, hemolysis (Fig 2b), replicates", "setting": "sheep red blood cells; 6.25 µM", "value": "0.02117 (2×) and 0.02078 and 0.02133 (2×) and 0.02093"}, {"measurement": "OD450, hemolysis (Fig 2b), replicates", "setting": "sheep red blood cells; 12.5 µM", "value": "0.02313 and 0.0233"}, {"measurement": "HC10 (concentration inducing 10% hemolysis)", "setting": "sheep red blood cells; red cells of sheep, 1 h", "value": "> 100.0", "unit": "µM"}, {"measurement": "viable count, time-kill", "setting": "[1]; 2 × MIC, 0 h", "value": "3000000 CFU/mL and 3500000 CFU/mL and 3400000 CFU/mL"}, {"measurement": "viable count, time-kill", "setting": "[1]; 2 × MIC, 1 h", "value": "275000 CFU/mL and 375000 CFU/mL and 310000 CFU/mL"}, {"measurement": "viable count, time-kill", "setting": "[1]; 2 × MIC, 3 h", "value": "33000 CFU/mL and 31000 CFU/mL"}, {"measurement": "viable count, time-kill", "setting": "[1]; 2 × MIC, 6 h", "value": "14000 CFU/mL and 18000 CFU/mL and 16000 CFU/mL"}, {"measurement": "viable count, time-kill", "setting": "[1]; 2 × MIC, 24 h", "value": "18000 CFU/mL and 24000 CFU/mL and 23000 CFU/mL"}, {"measurement": "viable count, time-kill", "setting": "[1]; 4 × MIC, 0 h", "value": "3000000 CFU/mL and 3500000 CFU/mL and 3400000 CFU/mL"}, {"measurement": "viable count, time-kill", "setting": "[1]; 4 × MIC, 1 h", "value": "70000 CFU/mL and 65000 CFU/mL and 66000 CFU/mL"}, {"measurement": "viable count, time-kill", "setting": "[1]; 4 × MIC, 6 h", "value": "8000 CFU/mL and 7400 CFU/mL and 9000 CFU/mL"}, {"measurement": "viable count, time-kill", "setting": "[1]; 4 × MIC, 24 h", "value": "16000 CFU/mL and 21000 CFU/mL and 19000 CFU/mL"}, {"measurement": "viable count, time-kill", "setting": "[1]; 8 × MIC, 0 h", "value": "3000000 CFU/mL and 3500000 CFU/mL and 3400000 CFU/mL"}, {"measurement": "viable count, time-kill", "setting": "[1]; 8 × MIC, 1 h", "value": "520000 CFU/mL and 540000 CFU/mL and 550000 CFU/mL"}, {"measurement": "viable count, time-kill", "setting": "[1]; 8 × MIC, 3 h", "value": "500 CFU/mL and 700 CFU/mL"}, {"measurement": "viable count, time-kill", "setting": "[1]; 8 × MIC, 24 h", "value": "100 CFU/mL and 200 CFU/mL"}, {"measurement": "killing outcome (in words)", "setting": "[1]; 8 × MIC, after 24 h", "value": "cannot completely be killed"}, {"measurement": "viable count, time-kill", "setting": "[1]; MIC, 0 h", "value": "3000000 CFU/mL and 3500000 CFU/mL and 3400000 CFU/mL"}, {"measurement": "viable count, time-kill", "setting": "[1]; MIC, 1 h", "value": "400000 CFU/mL and 330000 CFU/mL and 410000 CFU/mL"}, {"measurement": "viable count, time-kill", "setting": "[1]; MIC, 6 h", "value": "430000 CFU/mL and 570000 CFU/mL and 480000 CFU/mL"}, {"measurement": "viable count, time-kill", "setting": "[1]; MIC, 24 h", "value": "51000000 CFU/mL and 58000000 CFU/mL and 54000000 CFU/mL"}, {"measurement": "cell surface morphology by SEM (in words)", "setting": "MRSA USA 300 [2]", "value": "rough, shrunken, wrinkled and partially damaged"}, {"measurement": "cell surface morphology by SEM (in words)", "setting": "[3]", "value": "rough, shrunken, wrinkled and partially damaged"}, {"measurement": "membrane and intracellular structure by TEM (in words)", "setting": "MRSA USA 300 [4]", "value": "cytoplasmic membranes became blurred and separated"}, {"measurement": "membrane and intracellular structure by TEM (in words)", "setting": "[5]", "value": "cytoplasmic membranes became blurred and separated"}]}
